The results in this text go back to ChEMBL document CHEMBL1255477, “In vitro properties of BAL30072, a novel siderophore sulfactam with activity against multiresistant gram-negative bacilli” (Antimicrob Agents Chemother, 2010).

A short description of test [1]: Inhibition of beta-lactamase TEM-3.
The subject of test [2] is Pseudomonas aeruginosa. In words: Microbicidal activity against Pseudomonas aeruginosa (560546)9 M.P. selected after 4 times MIC compound exposure. It is filed as functional.
The subject of test [3] is Enterobacter cloacae. Nature of the test: Microbicidal activity against Enterobacter cloacae S9369 selected after 8 times MIC compound exposure. It is filed as functional.
A short description of test [4]: Inhibition of Escherichia coli Penicillin-binding protein 3.
A further test addresses Beta-lactamase (Citrobacter freundii, UniProt P05193). In words: Inhibition of Citrobacter freundii AmpC.
The subject of test [5] is Pseudomonas aeruginosa. In words: Microbicidal activity against Pseudomonas aeruginosa BA selected after 8 times MIC compound exposure. It counts as functional.
Test [6] is described as follows: Inhibition of Escherichia coli Penicillin-binding protein 1B.
Test [7] is described as follows: Inhibition of Pseudomonas aeruginosa 18S/H beta-lactamase class C.
A short description of test [8]: Inhibition of Beta-lactamase IMP1.
Another test has as its target AmpC (Escherichia coli, UniProt Q83TT7). Nature of the test: Inhibition of Escherichia coli ATCC 25922 AmpC.
Test [9] deals with Enterobacter cloacae. In words: Antimicrobial activity against Enterobacter cloacae S4741B assessed as highest concentration at which colonies reappeared. It is filed as functional.
Test [10] in a line: Inhibition of beta-lactamase SHV-2.
Test [11] concerns Enterobacter cloacae. In words: Antimicrobial activity against Enterobacter cloacae S9369 by broth dilution method. It is filed as functional. On the technique in general: Broth dilution looks for growth in wells or tubes with falling amounts of substance.
For test [12], the system named is Pseudomonas aeruginosa. Nature of the test: Antimicrobial activity against Pseudomonas aeruginosa 621 by broth dilution method. It is filed as functional.
In test [13] the test system is Pseudomonas aeruginosa. Nature of the test: Antimicrobial activity against Pseudomonas aeruginosa BA(C1-106) mutant assessed as doubling time. It is filed as functional.
Test [14] concerns Pseudomonas aeruginosa. Nature of the test: Antimicrobial activity against Pseudomonas aeruginosa 527 assessed as appearance of colony at 4 times MIC concentration. It counts as functional.
The next test relates to Klebsiella pneumoniae. In words: Antimicrobial activity against Klebsiella pneumoniae 1338665 by broth dilution method. It is filed as functional.
The test system of test [15] is Pseudomonas aeruginosa. In words: Microbicidal activity against Pseudomonas aeruginosa BA selected after 4 times MIC compound exposure. It counts as functional.
For a further test, the system named is Acinetobacter baumannii. Nature of the test: Antimicrobial activity against Acinetobacter baumannii HPA74510 selected after 4 times MIC compound exposure. It counts as functional.
The subject of test [16] is Pseudomonas aeruginosa. Nature of the test: Antimicrobial activity against Pseudomonas aeruginosa 860 by broth dilution method. It is filed as functional.
Test [17] relates to Pseudomonas aeruginosa. In words: Antimicrobial activity against Pseudomonas aeruginosa BA(C2-107) mutant assessed as doubling time. It counts as functional.
Test [18] has as its system Stenotrophomonas maltophilia. In words: Microbicidal activity against Stenotrophomonas maltophilia 1AC736 selected after 2 times MIC compound exposure. It is filed as functional.

In brackets after ≈: the same amount, converted by molar mass. Activity calls are given as the source filed them. The rule behind the calls is not given here.

AmpC, sequence (Q83TT7 whole entry): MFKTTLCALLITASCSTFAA
Beta-lactamase, sequence (P05193 whole entry): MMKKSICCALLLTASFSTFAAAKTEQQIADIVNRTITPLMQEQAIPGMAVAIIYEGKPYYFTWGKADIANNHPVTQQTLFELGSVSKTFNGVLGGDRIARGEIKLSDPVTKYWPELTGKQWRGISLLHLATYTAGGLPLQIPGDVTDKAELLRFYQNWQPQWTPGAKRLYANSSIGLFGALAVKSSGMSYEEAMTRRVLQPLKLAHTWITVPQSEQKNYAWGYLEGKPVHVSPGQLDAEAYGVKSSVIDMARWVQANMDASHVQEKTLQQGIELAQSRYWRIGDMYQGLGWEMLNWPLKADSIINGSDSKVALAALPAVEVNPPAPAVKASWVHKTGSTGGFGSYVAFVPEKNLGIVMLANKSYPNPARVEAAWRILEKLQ

`CC1(C)[C@H](NC(=O)/C(=N\OCc2cc(=O)c(O)cn2O)c2csc(N)n2)C(=O)N1OS(=O)(=O)O` (stereo in doubt): the IC50 (commonly the point on the concentration scale where inhibition reaches its midpoint) in test [1] is 4.6 µM; in [4], 0.048 µM; against Beta-lactamase it was 2.7 µM; in test [6], 1.9 µM; in test [7], 28 µM; in test [8] it was more than 2500 µM. Further, the IC50 against AmpC came out at 0.5 µM; in test [10], 3.4 µM. Further, the MBC (as a rule, the lowest tested concentration that kills the bacteria rather than only halting them) turned out to be 4 µg/mL (≈ 7.71 µM) in the test with Pseudomonas aeruginosa [2], 8 µg/mL (≈ 15.4 µM) in the test on Enterobacter cloacae [3] and 4 µg/mL (≈ 7.71 µM) in the test with Pseudomonas aeruginosa [5]. In the test on Enterobacter cloacae [9], the Activity was 16 mg/L.

With `C[C@@H](O)[C@H]1C(=O)N2C(C(=O)O)=C(S[C@@H]3CN[C@H](C(=O)N(C)C)C3)[C@H](C)[C@H]12` [MEROPENEM], the MIC – broadly, the least concentration at which growth counts as inhibited – with Enterobacter cloacae [11] is 4 µg/mL (≈ 10.4 µM); in the test on Pseudomonas aeruginosa [12], 0.125 µg/mL (≈ 0.326 µM); with Klebsiella pneumoniae it was 4 µg/mL (≈ 10.4 µM); with Acinetobacter baumannii it was more than 128 µg/mL; with Pseudomonas aeruginosa [16] it was 4 µg/mL (≈ 10.4 µM). Moreover, the Time in the test with Pseudomonas aeruginosa [13] was determined as 3.8 h; in the test with Pseudomonas aeruginosa [17] it was 4.1 h. In addition, in the test with Pseudomonas aeruginosa [14], the result was inactive. Further, the MBC against Pseudomonas aeruginosa [15] is 2 µg/mL (≈ 5.22 µM); in test [18], 16 µg/mL (≈ 41.7 µM).
